The values below come from PMC6121034 (Frontiers in Cellular Neuroscience, 2018).

Holding throughout (format): cell-based
The target of test [1] is T1, α1β2γ2 GABAA receptor (α1 subunit), ALA mutant (Rattus norvegicus, UniProt P18508+P62813+P63138, P62813:F91A).
T1 construct: gene Gabra1; rat α1/β2/γ2L subunits expressed in HEK-293 cells; with GABAA receptor β2 (Gabrb2) and γ2L (Gabrg2) subunits
Put plainly: whole-cell patch clamp, currents evoked by […] GABA. On the set-up: dose or concentration left out as unconfirmed.

Test [2] addresses T2, α1β2γ2 GABAA receptor (α1 subunit), LEU mutant (Rattus norvegicus, UniProt P18508+P62813+P63138, P62813:F91L).
T2 construct: gene Gabra1; rat α1/β2/γ2L subunits expressed in HEK-293 cells; with GABAA receptor β2 (Gabrb2) and γ2L (Gabrg2) subunits
Put plainly: whole-cell patch clamp, currents evoked by […] GABA. (Patch clamp records ionic current or voltage across a cell membrane.)

The target of test [3] is T3, α1β2γ2 GABAA receptor (α1 subunit) (Rattus norvegicus, UniProt P18508+P62813+P63138).
T3 construct: gene Gabra1; rat α1/β2/γ2L subunits expressed in HEK-293 cells; with GABAA receptor β2 (Gabrb2) and γ2L (Gabrg2) subunits
As to the kind of experiment: whole-cell patch clamp dose-response, partial agonist.

As usually defined, the pEC50 is the EC50 on a negative log10 scale, so that one unit is a factor of ten.

pEC50: −log10 of the molar value.

T1 sequence (P62813 28-455 F91A): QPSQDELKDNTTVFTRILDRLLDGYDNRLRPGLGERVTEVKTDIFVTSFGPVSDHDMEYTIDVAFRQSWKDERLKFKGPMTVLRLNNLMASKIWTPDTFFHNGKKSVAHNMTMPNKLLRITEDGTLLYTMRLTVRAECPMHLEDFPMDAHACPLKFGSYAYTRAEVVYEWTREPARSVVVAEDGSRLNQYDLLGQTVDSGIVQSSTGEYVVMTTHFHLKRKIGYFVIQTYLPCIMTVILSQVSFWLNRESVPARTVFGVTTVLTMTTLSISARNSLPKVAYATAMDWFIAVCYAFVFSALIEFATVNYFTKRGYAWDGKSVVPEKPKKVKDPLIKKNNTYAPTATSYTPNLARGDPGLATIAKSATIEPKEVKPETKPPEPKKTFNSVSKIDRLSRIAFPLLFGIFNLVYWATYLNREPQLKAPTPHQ
T1 sequence (P63138 26-474): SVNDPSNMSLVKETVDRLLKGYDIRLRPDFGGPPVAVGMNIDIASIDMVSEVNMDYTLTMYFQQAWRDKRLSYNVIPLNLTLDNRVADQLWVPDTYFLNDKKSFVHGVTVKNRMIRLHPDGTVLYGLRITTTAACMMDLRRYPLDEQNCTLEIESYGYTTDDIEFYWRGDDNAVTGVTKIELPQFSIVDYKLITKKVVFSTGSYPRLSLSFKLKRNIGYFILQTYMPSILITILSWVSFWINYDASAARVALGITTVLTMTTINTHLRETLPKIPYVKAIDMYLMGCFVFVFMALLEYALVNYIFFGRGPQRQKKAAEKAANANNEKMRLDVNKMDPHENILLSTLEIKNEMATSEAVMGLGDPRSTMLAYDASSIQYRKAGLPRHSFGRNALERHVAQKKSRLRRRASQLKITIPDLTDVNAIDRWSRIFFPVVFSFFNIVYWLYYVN
T1 sequence (P18508 39-466): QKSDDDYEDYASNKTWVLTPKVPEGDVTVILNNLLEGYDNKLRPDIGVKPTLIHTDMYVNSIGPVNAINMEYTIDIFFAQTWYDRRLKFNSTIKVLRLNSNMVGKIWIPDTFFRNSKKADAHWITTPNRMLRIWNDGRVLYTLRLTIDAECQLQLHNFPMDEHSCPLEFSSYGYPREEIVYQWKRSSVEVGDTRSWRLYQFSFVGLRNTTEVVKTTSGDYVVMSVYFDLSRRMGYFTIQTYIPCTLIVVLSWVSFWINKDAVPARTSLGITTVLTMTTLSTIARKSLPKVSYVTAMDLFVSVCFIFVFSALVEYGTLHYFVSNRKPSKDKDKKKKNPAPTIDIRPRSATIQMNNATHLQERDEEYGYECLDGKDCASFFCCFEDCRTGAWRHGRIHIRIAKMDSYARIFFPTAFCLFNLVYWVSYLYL
T3 sequence (P62813 28-455): as the sequence (P62813 28-455 F91A) above, with A64F counted along it
T3 sequence (P63138 26-474): as the sequence (P63138 26-474) above
T3 sequence (P18508 39-466): as the sequence (P18508 39-466) above
T2 sequence (P62813 28-455 F91L): as the sequence (P62813 28-455 F91A) above, with A64L counted along it
T2 sequence (P63138 26-474): as the sequence (P63138 26-474) above
T2 sequence (P18508 39-466): as the sequence (P18508 39-466) above

Take `NCCCC(=O)O` [GABA]: in test [1], the “whole-cell patch clamp, currents evoked by GABA” value is “Typical traces of current responses to saturating [GABA] application (black traces)”. In addition, the “whole-cell patch clamp, currents evoked by 100 mM GABA” value in test [2] is “Typical traces of current responses to saturating [GABA] application (black traces)”.
In test [3], `O=S(=O)(O)C1CCNCC1` [P4S, piperidine-4-sulfonic acid] showed a negative-log EC50 (pEC50) of 4.34.
